Results on 31 compounds are retold here after patent US8106048B2, “Heterocyclic NF-κB inhibitors” (4SC AG, priority 2004, dated 2012).

Assay [1] relates to TNF-α. To be noted: mouse; cited from earlier work.
Assay [2] concerns NF-κB. To be noted: cited from earlier work.
For assay [3], the system named is NF-κB. Particulars: cited from earlier work. This is another data set of the same source.
In assay [4] the test system is IκB-α. Particulars: cited from earlier work.
Assay [5] has as its system p65 subunit of NF-κB. To be noted: cited from earlier work.
Assay [6] deals with T1, 20S and 26S proteasome (Homo sapiens, UniProt P28072+P28074+Q99436).
T1 sequence (P28074 60-263): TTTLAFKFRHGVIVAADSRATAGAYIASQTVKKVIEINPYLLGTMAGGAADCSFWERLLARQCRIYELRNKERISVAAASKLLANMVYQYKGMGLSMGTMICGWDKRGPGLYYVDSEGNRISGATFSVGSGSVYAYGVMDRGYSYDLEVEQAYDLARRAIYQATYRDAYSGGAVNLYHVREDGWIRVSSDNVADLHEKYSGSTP
T1 sequence (P28072 1-239): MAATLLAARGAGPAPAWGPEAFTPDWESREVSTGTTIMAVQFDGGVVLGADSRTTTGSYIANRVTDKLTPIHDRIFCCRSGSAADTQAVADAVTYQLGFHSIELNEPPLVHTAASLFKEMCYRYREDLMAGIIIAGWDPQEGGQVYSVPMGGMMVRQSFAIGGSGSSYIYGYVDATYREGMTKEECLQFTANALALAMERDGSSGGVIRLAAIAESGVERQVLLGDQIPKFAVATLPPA
T1 sequence (Q99436 44-277): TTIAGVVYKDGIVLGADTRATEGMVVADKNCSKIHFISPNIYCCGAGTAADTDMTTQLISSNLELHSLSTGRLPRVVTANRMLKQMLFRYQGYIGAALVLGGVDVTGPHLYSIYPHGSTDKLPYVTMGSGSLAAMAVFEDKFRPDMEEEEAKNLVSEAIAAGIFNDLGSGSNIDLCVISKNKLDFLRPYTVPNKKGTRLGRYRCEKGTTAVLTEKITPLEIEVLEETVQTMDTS
Particulars: cited from earlier work.

Assay [7] deals with A549-NF-κB-SEAP reporter cells. Description: Inhibition of NF-κB-induced inflammation: […] NINA Instant Assay, TNF-α stimulated SEAP reporter. It is filed as cell-based. Summed up: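 A549 cells carrying an NF-κB-driven SEAP reporter were pretreated with compound (0.01–100 μM) for 4.5 h, then stimulated with 2 ng/ml TNF-α for 22 h. After inactivation of endogenous phosphatases, SEAP activity was read by CSPD chemiluminescence (40 min). EC50 values were fitted from quadruplicate data points.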

As to `CCN(CC)CCNC(=O)c1ccc(N)c(Cl)c1` [3-chloroprocainamide], the “lipopolysaccharide-induced TNF-α production” value in assay [1] is “blocked lipopolysacharide-induced TNF-α production in mouse in a dose dependent manner”. Besides, the “inhibition of NF-κB transcriptional activation” value in assay [2] is “inhibitors of NF-κB transcritional activation”.

For `C=C1C(=O)O[C@@H]2C[C@H](C)[C@H]3C=CC(=O)[C@@]3(C)[C@@H](O)[C@H]12` [Helenalin], the “NF-κB activation / activity” value in assay [3] is “inhibit NF-κB activity by selectively alkylating the cysteine residue of the p65 subunit of NF-κB”. Further, the IκB degradation entry in assay [4] was “did not inhibit”. The “translocation of NF-κB to the nucleus” value in assay [5] is “did not inhibit”.

For the compound `CC(=O)N[C@@H](CSC(=O)[C@]1([C@@H](O)C(C)C)NC(=O)[C@H](C)[C@@H]1O)C(=O)O` [Lactacystin], in assay [6], the “inhibition of 20S and 26S proteasome” value was “inhibits both, 20S and 26S proteasome”. Moreover, in assay [6] (trypsin-like, chymotrypsin-like, peptidylglutamylpeptide hydrolyzing), the “inhibitory activity on proteasome peptidase activities” value was “inhibitory activity on trypsin-like, chymotrypsin-like and peptidylglutamylpeptide hydrolyzing activities”.

As for `COc1cc(CNC(=O)CCCC/C=C/C(C)C)ccc1O` [capsaicin], the “NF-κB activation / activity” value in assay [3] was “blocked TNF-α and phorbol mediated NF-κB activation”. Also, in assay [4], the IκB degradation result was “blocked degradation of IκB-α”. Further, in assay [5], the “translocation of NF-κB to the nucleus” value is given as “blocked”.

For `O=C(c1ccc(C(F)(F)F)c(F)c1)N1CCC(c2nc(C(=O)N3CCN(c4cccc(C(F)(F)F)c4)CC3)cs2)CC1` [compound 215], the “Biological activity (inhibition in the NF-κB inflammation assay)” value in assay [7] (% inhibition classes) is on record as “+++ (“+++” stands for 90-100% inhibition)”.

As to `Cn1nc(C(C)(C)C)cc1C(=O)N1CCC(c2nc(C(=O)N3CCN(c4cccc(C(F)(F)F)c4)CC3)cs2)CC1` [compound 216], the “Biological activity (inhibition in the NF-κB inflammation assay)” value in assay [7] (% inhibition classes) is given as “++ (“++” means 80-90%)”.

On to `O=C(c1csc(C2CCN(C(=O)C3COc4ccccc4O3)CC2)n1)N1CCN(c2cccc(C(F)(F)F)c2)CC1` (centres unmarked) [compound 217], for which the “Biological activity (inhibition in the NF-κB inflammation assay)” value in assay [7] (% inhibition classes) is on record as “+++ (“+++” stands for 90-100% inhibition)”.

For the compound `O=C(c1csc(C2CCN(C(=O)c3cc(-c4ccc(Cl)cc4)oc3C(F)(F)F)CC2)n1)N1CCN(c2cccc(C(F)(F)F)c2)CC1` [compound 218], the “Biological activity (inhibition in the NF-κB inflammation assay)” value in assay [7] (% inhibition classes) is given as “+++ (“+++” stands for 90-100% inhibition)”.

For `Cc1noc(C)c1C(=O)N1CCC(c2nc(C(=O)N3CCN(c4cccc(C(F)(F)F)c4)CC3)cs2)CC1` [compound 219], the “Biological activity (inhibition in the NF-κB inflammation assay)” value in assay [7] (% inhibition classes) is “+ (“+” stands for 50-80% inhibition)”.

`Cc1nnsc1C(=O)N1CCC(c2nc(C(=O)N3CCN(c4cccc(C(F)(F)F)c4)CC3)cs2)CC1` [compound 221]: the “Biological activity (inhibition in the NF-κB inflammation assay)” value in assay [7] (% inhibition classes) is “+ (“+” stands for 50-80% inhibition)”.

On to `O=C(c1cccnc1)N1CCC(c2nc(C(=O)N3CCN(c4cccc(C(F)(F)F)c4)CC3)cs2)CC1` [compound 222], for which, in assay [7] (% inhibition classes), the “Biological activity (inhibition in the NF-κB inflammation assay)” value was “+ (“+” stands for 50-80% inhibition)”.

For the compound `O=C(c1csc(C2CCN(C(=O)c3ccccc3OC(F)(F)F)CC2)n1)N1CCN(c2cccc(C(F)(F)F)c2)CC1` [compound 223], the “Biological activity (inhibition in the NF-κB inflammation assay)” value in assay [7] (% inhibition classes) was “+++ (“+++” stands for 90-100% inhibition)”.

As to `O=C(CCC1CCCC1)N1CCC(c2nc(C(=O)N3CCN(c4cccc(C(F)(F)F)c4)CC3)cs2)CC1` [compound 224], the “Biological activity (inhibition in the NF-κB inflammation assay)” value in assay [7] (% inhibition classes) is “+ (“+” stands for 50-80% inhibition)”.

As for `COc1cc(C(=O)N2CCC(c3nc(C(=O)N4CCN(c5cccc(C(F)(F)F)c5)CC4)cs3)CC2)cc(OC)c1OC` [compound 225], the “Biological activity (inhibition in the NF-κB inflammation assay)” value in assay [7] (% inhibition classes) is reported as “+ (“+” stands for 50-80% inhibition)”.

For `CN(C)c1cccc(C(=O)N2CCC(c3nc(C(=O)N4CCN(c5cccc(C(F)(F)F)c5)CC4)cs3)CC2)c1` [compound 226], the “Biological activity (inhibition in the NF-κB inflammation assay)” value in assay [7] (% inhibition classes) is “++ (“++” means 80-90%)”.

As for `COC(=O)CC1c2ccccc2CCN1C(=O)c1csc(C2CCN(C(=O)Cc3ccc(F)cc3)CC2)n1` (centres unmarked) [compound 227], the “Biological activity (inhibition in the NF-κB inflammation assay)” value in assay [7] (% inhibition classes) is given as “+ (“+” stands for 50-80% inhibition)”.

For `N#CC1(c2ccccc2)CCN(C(=O)c2csc(C3CCN(C(=O)Cc4ccc(F)cc4)CC3)n2)CC1` [compound 228], in assay [7] (% inhibition classes), the “Biological activity (inhibition in the NF-κB inflammation assay)” value is “+ (“+” stands for 50-80% inhibition)”.

With `COc1ccccc1N1CCN(C(=O)c2csc(C3CCN(C(=O)Cc4ccc(F)cc4)CC3)n2)CC1` [compound 229], the “Biological activity (inhibition in the NF-κB inflammation assay)” value in assay [7] (% inhibition classes) is “+ (“+” stands for 50-80% inhibition)”.

With `O=C(c1csc(C2CCN(C(=O)c3ccco3)CC2)n1)N1CCN(c2cccc(C(F)(F)F)c2)CC1` [compound 230], in assay [7] (% inhibition classes), the “Biological activity (inhibition in the NF-κB inflammation assay)” value is recorded as “+ (“+” stands for 50-80% inhibition)”.

With `CCCCN1CCN(C(=O)c2csc(C3CCN(C(=O)Cc4ccc(F)cc4)CC3)n2)CC1` [compound 231], in assay [7] (% inhibition classes), the “Biological activity (inhibition in the NF-κB inflammation assay)” value is listed as “+ (“+” stands for 50-80% inhibition)”.

With `COc1cc2c(cc1OC)CN(C(=O)c1csc(C3CCN(C(=O)Cc4ccc(F)cc4)CC3)n1)C(C)C2` (centres unmarked) [compound 232], in assay [7] (% inhibition classes), the “Biological activity (inhibition in the NF-κB inflammation assay)” value is on record as “+ (“+” stands for 50-80% inhibition)”.

Turning to `CC1c2cc(O)c(O)cc2CCN1C(=O)c1csc(C2CCN(C(=O)Cc3ccc(F)cc3)CC2)n1` (centres unmarked) [compound 233], the “Biological activity (inhibition in the NF-κB inflammation assay)” value in assay [7] (% inhibition classes) is recorded as “+ (“+” stands for 50-80% inhibition)”.

As to `COc1cc2c(cc1OC)C(C)N(C(=O)c1csc(C3CCN(C(=O)Cc4ccc(F)cc4)CC3)n1)CC2` (centres unmarked) [compound 234], in assay [7] (inhibition classes), the “Biological activity (inhibition in the NF-κB inflammation assay)” value was “+ (“+” stands for 50-80% inhibition)”.

With `CNc1ccc(Cl)cc1C1c2ccccc2CCN1C(=O)c1csc(C2CCN(C(=O)Cc3ccc(F)cc3)CC2)n1` (centres unmarked) [compound 235], the “Biological activity (inhibition in the NF-κB inflammation assay)” value in assay [7] (inhibition classes) was “+ (“+” stands for 50-80% inhibition)”.

In the case of `O=C(Cc1ccc(F)cc1)N1CCC(c2nc(C(=O)N3CCCC3c3ccc(F)cc3)cs2)CC1` (centres unmarked) [compound 236], the “Biological activity (inhibition in the NF-κB inflammation assay)” value in assay [7] (inhibition classes) is recorded as “+ (“+” stands for 50-80% inhibition)”.

Turning to `O=C(Cc1ccc(F)cc1)N1CCC(c2nc(C(=O)N3CCN(c4ccccn4)CC3)cs2)CC1` [compound 237], the “Biological activity (inhibition in the NF-κB inflammation assay)” value in assay [7] (inhibition classes) is “+ (“+” stands for 50-80% inhibition)”.

With `O=C(Cc1ccc(F)cc1)N1CCC(c2nc(C(=O)N3CCN(c4cccc(Cl)c4)CC3)cs2)CC1` [compound 238], the “Biological activity (inhibition in the NF-κB inflammation assay)” value in assay [7] (inhibition classes) is reported as “+ (“+” stands for 50-80% inhibition)”.

Turning to `COc1ccc(OC)c(N2CCC(c3nc(C(=O)N4CCN(c5cccc(C(F)(F)F)c5)CC4)cs3)CC2)c1` [compound 239], the “Biological activity (inhibition in the NF-κB inflammation assay)” value in assay [7] (inhibition classes) is “+ (“+” stands for 50-80% inhibition)”.

Consider `COc1cc(NC(=O)N2CCC(c3nc(C(=O)N4CCN(c5cccc(C(F)(F)F)c5)CC4)cs3)CC2)cc(OC)c1OC` [compound 240], for which the “Biological activity (inhibition in the NF-κB inflammation assay)” value in assay [7] (inhibition classes) is reported as “++ (“++” means 80-90%)”.

On to `NC(=O)c1cccnc1` [nicotinamide], for which the “lipopolysaccharide-induced TNF-α production” value in assay [1] is “blocked lipopolysacharide-induced TNF-α production in mouse in a dose dependent manner”.

Consider `S=C(S)N1CCCC1` [pyrrolidine dithiocarbamate], for which the “lipopolysaccharide-induced TNF-α production” value in assay [1] is reported as “blocked lipopolysacharide-induced TNF-α production in mouse in a dose dependent manner”. Further, the “inhibition of NF-κB transcriptional activation” value in assay [2] was “inhibitors of NF-κB transcritional activation”.
